Columns and labels:
[1] = Near-saturated concentration of resveratrol in ethanol; format: physicochemical; details: 25° C.
Procedure: To deliver a 25 mg dose, 0.60 mL of tincture is required regardless of volume of beverage.

[2] = Free trans-resveratrol in beverages after adding trans-resveratrol powder, 10 micron filtered (HPLC/(+)ESI-MS/MS and HPLC/UV); format: physicochemical
Source text: All beverages receiving the powder are thoroughly mixed. […] A few milliliters of each beverage are transferred to amber-colored sample vials. Samples are stored from each beverage in a refrigerator for analysis.

concentration of concentrated (near-saturated) tincture [1]	Compound	appearance on adding powder to beverage ([2]; 25 mg powder in a serving volume, all beverages)	amount of bioavailable (free) resveratrol ([2]; 25 mg powder in alcoholic beverages (red wine, white wine, beer, spirits), 10 micron filtered)	measurable concentrations of free trans-resveratrol ([2]; 25 mg powder in non-alcoholic beverages (energy drink, sodas, orange juice), 10 micron filtered)
42000 µg/mL	Oc1ccc(/C=C/c2cc(O)cc(O)c2)cc1 [resveratrol, trans-resveratrol]	–	–	–
–	Oc1ccc(/C=C/c2cc(O)cc(O)c2)cc1 [trans-resveratrol powder, trans-resveratrol]	appears to suspend in solution forming a cloudy layer	below the minimum detection limits of the devices	none of the non-alcoholic beverages (energy drink, sodas, and orange juice) receiving the powder show any measurable concentrations of trans-resveratrol
